Publication PMC6978363, “Chaperone mediated detection of small molecule target binding in cells” (Nature Communications, 2020)

What was measured:
Assay in all cases: biochemical
Details in all cases: read-out: % Inhibition (at 10mM)
MAPKAPK3 = MAPKAPK3 (Homo sapiens, UniProt Q16644)
NEK2 = NEK2 (Homo sapiens, UniProt P51955)
PKC_iota = target: T1, PKC_iota (Homo sapiens, UniProt P41743)
T1 construct: gene PRKCI

EphA4 = EphA4 (Homo sapiens, UniProt P54764)
IRR = target: T2, IRR (Homo sapiens, UniProt P14616)
T2 construct: gene INSRR

PKA = target: T3, PKA (Homo sapiens, UniProt P17612)
T3 construct: gene PRKACA

p38_beta = target: T4, p38_beta (Homo sapiens, UniProt Q15759)
T4 construct: gene MAPK11

EphA5 = EphA5 (Homo sapiens, UniProt P54756)
Chain of EphA5 (P54756 whole entry): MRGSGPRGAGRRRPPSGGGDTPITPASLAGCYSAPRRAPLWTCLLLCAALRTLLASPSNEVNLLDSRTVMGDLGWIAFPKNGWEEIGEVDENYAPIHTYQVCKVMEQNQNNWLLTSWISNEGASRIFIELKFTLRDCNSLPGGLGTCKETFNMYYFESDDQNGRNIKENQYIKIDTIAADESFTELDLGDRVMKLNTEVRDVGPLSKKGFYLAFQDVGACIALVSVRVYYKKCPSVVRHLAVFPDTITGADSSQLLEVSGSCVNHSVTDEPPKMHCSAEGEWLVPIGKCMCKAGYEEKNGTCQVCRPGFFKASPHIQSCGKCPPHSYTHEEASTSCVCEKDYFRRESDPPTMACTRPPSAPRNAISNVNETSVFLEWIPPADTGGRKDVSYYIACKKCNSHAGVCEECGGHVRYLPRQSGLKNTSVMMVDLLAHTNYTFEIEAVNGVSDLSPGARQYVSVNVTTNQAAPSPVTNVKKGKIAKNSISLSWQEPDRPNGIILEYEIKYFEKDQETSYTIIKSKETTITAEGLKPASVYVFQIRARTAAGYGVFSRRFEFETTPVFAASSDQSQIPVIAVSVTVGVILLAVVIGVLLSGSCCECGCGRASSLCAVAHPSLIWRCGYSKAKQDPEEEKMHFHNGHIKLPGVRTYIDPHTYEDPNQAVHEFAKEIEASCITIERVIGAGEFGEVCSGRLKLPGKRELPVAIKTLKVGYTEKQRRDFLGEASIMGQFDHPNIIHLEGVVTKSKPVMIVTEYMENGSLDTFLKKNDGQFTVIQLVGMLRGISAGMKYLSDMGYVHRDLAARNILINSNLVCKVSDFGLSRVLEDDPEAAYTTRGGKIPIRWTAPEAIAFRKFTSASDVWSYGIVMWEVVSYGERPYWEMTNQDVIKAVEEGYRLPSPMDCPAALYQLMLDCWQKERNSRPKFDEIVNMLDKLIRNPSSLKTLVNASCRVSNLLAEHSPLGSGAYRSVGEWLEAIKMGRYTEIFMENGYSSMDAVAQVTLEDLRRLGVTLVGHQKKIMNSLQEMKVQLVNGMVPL

PKD3 = target: T5, PKD3 (Homo sapiens, UniProt O94806)
T5 construct: gene PRKD3
T5 sequence (O94806 whole entry): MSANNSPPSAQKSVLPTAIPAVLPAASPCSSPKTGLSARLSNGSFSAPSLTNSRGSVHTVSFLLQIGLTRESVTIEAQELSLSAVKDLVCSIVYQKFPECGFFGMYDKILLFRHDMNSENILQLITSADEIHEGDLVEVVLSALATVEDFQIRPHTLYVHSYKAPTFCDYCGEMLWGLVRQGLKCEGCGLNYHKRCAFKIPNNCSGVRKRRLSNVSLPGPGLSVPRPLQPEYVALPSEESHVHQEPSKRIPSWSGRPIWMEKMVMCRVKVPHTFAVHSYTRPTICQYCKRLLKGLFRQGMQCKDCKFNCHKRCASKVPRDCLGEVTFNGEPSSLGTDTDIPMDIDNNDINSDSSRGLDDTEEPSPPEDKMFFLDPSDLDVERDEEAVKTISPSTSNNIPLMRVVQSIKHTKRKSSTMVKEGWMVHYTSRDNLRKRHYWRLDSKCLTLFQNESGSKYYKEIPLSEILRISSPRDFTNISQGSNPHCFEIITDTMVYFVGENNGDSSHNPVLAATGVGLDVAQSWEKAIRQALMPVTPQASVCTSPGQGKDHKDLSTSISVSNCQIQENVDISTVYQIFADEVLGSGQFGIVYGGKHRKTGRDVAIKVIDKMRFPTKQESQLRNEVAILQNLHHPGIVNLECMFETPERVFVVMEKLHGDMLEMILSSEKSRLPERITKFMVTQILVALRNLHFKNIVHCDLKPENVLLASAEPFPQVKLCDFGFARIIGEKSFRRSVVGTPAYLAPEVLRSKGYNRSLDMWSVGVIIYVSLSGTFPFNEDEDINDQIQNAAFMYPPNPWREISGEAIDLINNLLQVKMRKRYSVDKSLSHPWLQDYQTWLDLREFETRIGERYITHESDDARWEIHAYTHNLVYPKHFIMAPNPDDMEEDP

Mink1 = Mink1 (Homo sapiens, UniProt Q8N4C8)
TBK1 = TBK1 (Homo sapiens, UniProt Q9UHD2)
Chain of TBK1 (Q9UHD2 whole entry): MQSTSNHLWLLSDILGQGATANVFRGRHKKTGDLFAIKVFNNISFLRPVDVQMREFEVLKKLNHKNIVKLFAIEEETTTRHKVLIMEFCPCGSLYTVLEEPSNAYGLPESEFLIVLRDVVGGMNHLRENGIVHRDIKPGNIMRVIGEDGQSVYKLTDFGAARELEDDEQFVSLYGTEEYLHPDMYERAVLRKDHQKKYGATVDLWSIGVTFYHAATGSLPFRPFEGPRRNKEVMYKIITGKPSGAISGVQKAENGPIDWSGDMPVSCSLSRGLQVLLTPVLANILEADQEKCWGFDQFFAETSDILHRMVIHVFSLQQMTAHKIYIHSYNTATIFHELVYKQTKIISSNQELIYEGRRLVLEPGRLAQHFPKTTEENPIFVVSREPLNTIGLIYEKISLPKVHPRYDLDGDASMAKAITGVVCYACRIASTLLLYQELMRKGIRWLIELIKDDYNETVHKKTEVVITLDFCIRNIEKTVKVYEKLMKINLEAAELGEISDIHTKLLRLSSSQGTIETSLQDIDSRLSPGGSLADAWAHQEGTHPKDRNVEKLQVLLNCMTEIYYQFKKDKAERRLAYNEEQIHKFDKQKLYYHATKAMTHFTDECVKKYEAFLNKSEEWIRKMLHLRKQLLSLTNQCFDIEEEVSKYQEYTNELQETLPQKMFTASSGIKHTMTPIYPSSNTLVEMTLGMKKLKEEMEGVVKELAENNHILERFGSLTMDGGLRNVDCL

PDK1(direct) = target: T6, PDK1(direct) (Homo sapiens, UniProt O15530)
T6 construct: gene PDPK1; direct

MuSK = MuSK (Homo sapiens, UniProt O15146)
PIM1 = PIM1 (Homo sapiens, UniProt P11309)
PCTK3 = target: T7, PCTK3 (Homo sapiens, UniProt Q07002)
T7 construct: gene CDK18

PASK = PASK (Homo sapiens, UniProt Q96RG2)
ALK = ALK (Homo sapiens, UniProt Q9UM73)
PRKAA2 = PRKAA2 (Homo sapiens, UniProt P54646)
PAK2 = PAK2 (Homo sapiens, UniProt Q13177)
PRKAA1_B2_G3 = target: T8, PRKAA1_B2_G3 (Homo sapiens, UniProt Q13131)
T8 construct: gene PRKAA1

p38_alpha(direct) = target: T9, p38_alpha(direct) (Homo sapiens, UniProt Q16539)
T9 construct: gene MAPK14; direct

PLK3 = PLK3 (Homo sapiens, UniProt Q9H4B4)
PRKAA2_B1_G2 = target: T10, PRKAA2_B1_G2 (Homo sapiens, UniProt P54646)
T10 construct: gene PRKAA2

PDGFR_beta = target: T11, PDGFR_beta (Homo sapiens, UniProt P09619)
T11 construct: gene PDGFRB

TSSK1 = target: T12, TSSK1 (Homo sapiens, UniProt Q9BXA7)
T12 construct: gene TSSK1B

PKD2 = target: T13, PKD2 (Homo sapiens, UniProt Q9BZL6)
T13 construct: gene PRKD2

CDK5/p25 = target: T14, CDK5/p25 (Homo sapiens, UniProt Q00535)
T14 construct: p25

BTK = BTK (Homo sapiens, UniProt Q06187)
NEK6 = NEK6 (Homo sapiens, UniProt Q9HC98)
Chain of NEK6 (Q9HC98 whole entry): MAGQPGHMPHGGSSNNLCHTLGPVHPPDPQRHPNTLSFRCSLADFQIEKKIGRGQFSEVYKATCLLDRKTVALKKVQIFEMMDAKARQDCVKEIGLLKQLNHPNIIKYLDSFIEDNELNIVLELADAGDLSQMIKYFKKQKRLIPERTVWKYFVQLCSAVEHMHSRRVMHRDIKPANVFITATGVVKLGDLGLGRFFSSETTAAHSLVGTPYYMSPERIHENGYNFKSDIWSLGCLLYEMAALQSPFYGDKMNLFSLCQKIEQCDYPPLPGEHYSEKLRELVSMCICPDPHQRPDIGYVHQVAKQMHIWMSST

Brk = target: T15, Brk (Homo sapiens, UniProt Q13882)
T15 construct: gene PTK6

DYRK4 = DYRK4 (Homo sapiens, UniProt Q9NR20)
Chain of DYRK4 (Q9NR20 whole entry): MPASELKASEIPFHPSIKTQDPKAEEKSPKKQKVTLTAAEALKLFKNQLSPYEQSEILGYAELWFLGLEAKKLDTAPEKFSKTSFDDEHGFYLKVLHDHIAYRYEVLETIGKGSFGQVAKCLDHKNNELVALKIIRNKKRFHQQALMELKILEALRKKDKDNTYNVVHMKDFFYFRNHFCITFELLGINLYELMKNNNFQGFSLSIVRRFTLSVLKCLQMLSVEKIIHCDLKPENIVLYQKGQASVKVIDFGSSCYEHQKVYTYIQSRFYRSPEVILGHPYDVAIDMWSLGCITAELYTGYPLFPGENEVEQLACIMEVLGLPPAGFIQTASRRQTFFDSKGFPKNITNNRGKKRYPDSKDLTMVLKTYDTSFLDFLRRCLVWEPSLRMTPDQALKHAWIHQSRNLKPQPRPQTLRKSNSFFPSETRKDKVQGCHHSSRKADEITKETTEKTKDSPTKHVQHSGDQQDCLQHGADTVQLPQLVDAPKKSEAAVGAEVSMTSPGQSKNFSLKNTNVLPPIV

GRK7 = GRK7 (Homo sapiens, UniProt Q8WTQ7)
Axl = Axl (Homo sapiens, UniProt P30530)
NEK7 = NEK7 (Homo sapiens, UniProt Q8TDX7)
KHS1 = target: T16, KHS1 (Homo sapiens, UniProt Q9Y4K4)
T16 construct: gene MAP4K5

InsR = InsR (Homo sapiens, UniProt P06213)
CLK2 = CLK2 (Homo sapiens, UniProt P49760)
Mer = target: T17, Mer (Homo sapiens, UniProt Q12866)
T17 construct: gene MERTK

Chain of EphA4 (P54764 whole entry): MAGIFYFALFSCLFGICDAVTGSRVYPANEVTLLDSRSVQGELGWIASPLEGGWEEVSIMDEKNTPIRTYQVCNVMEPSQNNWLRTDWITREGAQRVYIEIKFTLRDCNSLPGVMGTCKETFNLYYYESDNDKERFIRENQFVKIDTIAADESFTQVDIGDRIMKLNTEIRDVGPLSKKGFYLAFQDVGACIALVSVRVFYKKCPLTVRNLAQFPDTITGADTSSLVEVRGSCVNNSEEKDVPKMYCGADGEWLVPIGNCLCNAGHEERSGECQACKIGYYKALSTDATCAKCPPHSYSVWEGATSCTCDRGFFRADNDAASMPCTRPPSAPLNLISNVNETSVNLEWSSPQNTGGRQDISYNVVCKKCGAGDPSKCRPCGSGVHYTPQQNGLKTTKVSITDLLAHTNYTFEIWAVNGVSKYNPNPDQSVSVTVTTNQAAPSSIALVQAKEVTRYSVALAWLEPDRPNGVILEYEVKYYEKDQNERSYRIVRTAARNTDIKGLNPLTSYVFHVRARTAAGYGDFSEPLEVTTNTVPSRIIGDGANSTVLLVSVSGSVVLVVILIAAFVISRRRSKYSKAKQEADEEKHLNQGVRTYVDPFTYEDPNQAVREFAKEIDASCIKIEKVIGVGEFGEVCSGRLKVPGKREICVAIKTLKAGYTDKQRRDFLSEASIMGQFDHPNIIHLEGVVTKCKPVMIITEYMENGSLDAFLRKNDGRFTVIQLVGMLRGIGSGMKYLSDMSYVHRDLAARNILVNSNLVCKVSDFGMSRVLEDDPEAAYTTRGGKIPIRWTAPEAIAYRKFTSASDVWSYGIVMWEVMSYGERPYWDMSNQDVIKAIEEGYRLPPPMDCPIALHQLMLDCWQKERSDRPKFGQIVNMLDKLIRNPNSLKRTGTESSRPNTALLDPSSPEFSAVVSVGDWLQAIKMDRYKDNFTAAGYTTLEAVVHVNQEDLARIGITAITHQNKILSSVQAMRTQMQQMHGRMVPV
Chain of MAPKAPK3 (Q16644 whole entry): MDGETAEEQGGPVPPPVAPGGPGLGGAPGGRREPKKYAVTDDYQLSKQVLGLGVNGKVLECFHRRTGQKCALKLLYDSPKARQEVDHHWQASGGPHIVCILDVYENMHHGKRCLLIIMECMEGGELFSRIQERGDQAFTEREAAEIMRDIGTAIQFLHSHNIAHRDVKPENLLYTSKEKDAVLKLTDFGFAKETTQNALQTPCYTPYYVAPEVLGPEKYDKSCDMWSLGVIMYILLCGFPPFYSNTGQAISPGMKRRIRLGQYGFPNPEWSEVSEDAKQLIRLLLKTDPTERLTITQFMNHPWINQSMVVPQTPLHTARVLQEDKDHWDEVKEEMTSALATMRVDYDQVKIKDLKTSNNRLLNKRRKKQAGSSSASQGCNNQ

inhibition (MAPKAPK3): 14.5%
inhibition (NEK2): 4%
inhibition (PKC_iota): 8%
inhibition (EphA4): 9%
inhibition (IRR): 6.5%
inhibition (PKA): 2.5%
inhibition (p38_beta): 1%
inhibition (EphA5): 2%
inhibition (PKD3): 31.5%
inhibition (Mink1): 7%
inhibition (TBK1): 8%
inhibition (PDK1(direct)): 9%
inhibition (MuSK): 17.5%
inhibition (PIM1): 5.5%
inhibition (PCTK3): 6%
inhibition (PASK): 2.5%
inhibition (ALK): 8.5%
inhibition (PRKAA2): 10.5%
inhibition (PAK2): 10.5%
inhibition (PRKAA1_B2_G3): 0.5%
inhibition (p38_alpha(direct)): 4%
inhibition (PLK3): -8.5%
inhibition (PRKAA2_B1_G2): 4.5%
inhibition (PDGFR_beta): -4%
inhibition (TSSK1): -6.5%
inhibition (PKD2): 80.5%
inhibition (CDK5/p25): 8%
inhibition (BTK): 36%
inhibition (NEK6): 6%
inhibition (Brk): 65%
inhibition (DYRK4): 1.5%
inhibition (GRK7): 5.5%
inhibition (Axl): 5%
inhibition (NEK7): 7%
inhibition (KHS1): 40.5%
inhibition (InsR): 9.5%
inhibition (CLK2): 18.5%
inhibition (Mer): 49.5%
SMILES: CC(C)(O)CC(=O)NCCn1ccc2ncnc(Nc3ccc(Oc4cccc(C(F)(F)F)c4)c(Cl)c3)c21 [TAK-285]
